Assay results from paper PMC8451604, “Rational formulation engineering of fraxinellone utilizing 6-O-α-D-maltosyl-β-cyclodextrin for enhanced oral bioavailability and hepatic fibrosis therapy” (Drug Delivery, 2021).
In brackets after ≈: the same amount, converted by molar mass.

Key:
[1] = Stability of Frax in homogenates of gastrointestinal segments; assay type: in vitro ADME, rats; conditions: rat GI segment homogenates, 37 °C
Protocol: GI segments (the stomach, duodenum, jejunum, ileum, and colon) were immediately isolated after the rats were sacrificed. Thereafter, the mucosa of each segment was homogenized and centrifuged following gently scraping. The supernatant was separated and subjected to BCA protein quantitative kit to adjust the final protein concentration to 1 mg/mL. DMSO solution of Frax (5 mg/mL) was added in the homogenate to achieve a final drug concentration of 20 μg/mL. After incubation at 37 °C for predetermined durations, samples were immediately precipitated by methanol, centrifuged, and injected into HPLC to measure the Frax concentration. The drug concentration measured before the incubation was set to 100%.

[2] = Phase solubility study of Frax with CDs; assay type: physicochemical; conditions: 37 °C; for solubility at 72 h: aqueous with cosolvent or surfactant or cyclodextrin, thermodynamic from solid; for Frax solubility increase: vs water
Protocol: Frax was excessively mixed with increasing molar concentrations (0–350.00 mM) of each CD aqueous solution. […] The samples were subjected to HPLC analysis after centrifugation (4024.8 g, 10 min). Phase solubility profiles were plotted by monitoring Frax concentration as a function of the molar concentration of each CD. Based on the phase solubility curves, we calculated the apparent stability constants (Kc, L/mol) according to Equation (1): (1) Kc=Slope/S0(1−Slope) where S0 is the water solubility of Frax at equilibrium.

Caco-2 cells = test: Cytotoxicity in Caco-2 cells (MTT assay); assay type: cell-based; conditions: Caco-2, concentration increased to 200 μg/mL
Protocol: Cytotoxicity effects and cellular uptake ability of Frax, CDs, and CDs-Frax complexes were examined using Caco-2 cells. […] Each CD solution was also used to determine whether the cell toxicity was caused by Frax or CDs. For cellular uptake studies, Caco-2 cells were treated with Frax and CDs-Frax (100 μg/mL) for 0.5, 1, and 2 h, respectively. For P-gp inhibition evaluation, the cells were pretreated with verapamil at a concentration of 100 μg/mL and further treated with each drug or formulation. Thereafter, the cells were washed and replenished with fresh PBS (300 μL). The cell lysate was prepared by three cycles of freeze-thaw. Protein concentration in the samples was quantified by the BCA kit while the Frax concentration was determined by HPLC.

[3] = Oral bioavailability / pharmacokinetic study; set-up: species or system Male Wistar rats; conditions: male, Wistar, rat, in vivo
Protocol: Pharmacokinetic studies were conducted in Male Wistar rats (180–220 g) supplied by the Center of laboratory animals, Zhengzhou University. The Use Committee of Zhengzhou University (IRB0000861) approved the experimental protocol. In addition, all animal experiments were conducted according to the Guidelines of Animal Experimentation of the Laboratory Animal Center. Rats were acclimatized before experiments and provided free access to food and water.
Rats divided into five groups at random (n = 5) were dosed with the following formulations: intravenous administration of Frax ([…]) or orally given Frax suspension (150 mg/kg) or SBE-β-CD-Frax, HP-β-CD-Frax, and G2-β-CD-Frax (150 mg/kg), respectively. Blood (0.4 mL) was obtained by orbital sinus collection at 0.17, 0.25, 0.75, 1, 1.5, 2, 4, 6, 8, and 10 h post-administration. To determine Frax concentration in plasma, 200 μL methanol, 100 μL acetonitrile, and 20 μL 5% hydrochloric acid were added to rat plasma (100 μL) gradually. Following vortexing and centrifugation (4024.8 g, 10 min), the supernatant was collected, dried by air blowing at room temperature, and reconstituted with 150 μL of the mobile phase. The samples were sonicated and vortexed until homogeneity. After centrifugation, the supernatant (50 μL) was aspirated and injected into HPLC. The standard curve encompassed a linear range of 0.05–10 μg/mL and was used to calculate Frax concentration in plasma. Pharmacokinetic parameters were calculated using DAS software version 3.0 and reported as mean ± standard deviation. The oral absolute and relative bioavailability (Fa and Fr) were calculated using the following Equations (3) and (4): (3) Fa(%)=AUC^testDose^i.v/AUC^i.vDose^test (4) Fr(%)=AUCtest/AUCreference where AUC is the area under the pharmacokinetic curves

[4] = tested on: CCl4-induced liver fibrosis mice; test: CCl4-induced liver fibrosis, therapeutic efficacy; assay type: in vivo, Kunming male mice
Protocol: The Kunming male mice (weight of 28–30 g) were divided into 10 groups (n = 10): normal group, CCl4-induced liver fibrosis group, CCl4 induction treated with Frax or G2-β-CD-Frax treatment groups (5, 10, and 20 mg/kg, respectively), CCl4 induction with colchicine (0.2 mg/kg) treatment group, CCl4 induction with G2-β-CD solution treatment (equivalent to 20 mg/kg of G2-β-CD-Frax) group. The mice in the normal group were treated with olive oil only, while the other groups were intraperitoneally injected with 10% CCl4-olive oil every other week for 10 weeks (5 mL/kg for the first dose and 3 mL/kg for the second starting dose). Drug treatment began on the fourth week of modeling and continued every day for 7 weeks. One day after the last administration, blood in all the groups was immediately harvested for assays of AST and ALT. […] were then sacrificed and livers were collected and divided into two parts for histological examination and Hydroxyproline (HYP) assay, respectively.

[5] = set-up: method as in Ruan et al., 2006; conditions: ref Ruan et al., 2006; cited from earlier work
[6] = oral 5 mg/kg daily for 7 weeks, vs CCl4 group

degradation in GI homogenates [1]: negligible degradation
solubility at 72 h ([2]; 8.82 mM G2-β-CD aqueous solution, with 8.82 mM G2-β-CD): 430 µg/mL (≈ 1850 µM)
solubility at 72 h ([2]; 8.82 mM HP-β-CD aqueous solution, with 8.82 mM HP-β-CD): 330 µg/mL (≈ 1420 µM)
solubility at 72 h ([2]; 8.82 mM SBE-β-CD aqueous solution, with 8.82 mM SBE-β-CD): 600 µg/mL (≈ 2580 µM)
solubility at 72 h ([2]; 8.82 mM β-CD aqueous solution, with 8.82 mM β-CD): 310 µg/mL (≈ 1330 µM)
solubility at 72 h ([2]; 350 mM G2-β-CD aqueous solution, with 350 mM G2-β-CD): 12300 µg/mL (≈ 53000 µM)
solubility at 72 h ([2]; 350 mM HP-β-CD aqueous solution, with 350 mM HP-β-CD): 6550 µg/mL (≈ 28200 µM)
solubility at 72 h ([2]; 350 mM SBE-β-CD aqueous solution, with 350 mM SBE-β-CD): 13600 µg/mL (≈ 58400 µM)
Frax solubility increase ([2]; with 8.82 mM G2-β-CD): 5.45 fold
Frax solubility increase ([2]; with 8.82 mM HP-β-CD): 4.18 fold
Frax solubility increase ([2]; with 8.82 mM SBE-β-CD): 7.61 fold
Frax solubility increase ([2]; with 8.82 mM β-CD): 3.93 fold
Frax solubility increase ([2]; with 350 mM G2-β-CD): 156.19 fold
Frax solubility increase ([2]; with 350 mM HP-β-CD): 83.04 fold
Frax solubility increase ([2]; with 350 mM SBE-β-CD): 171.91 fold
bioavailability [3]: 0.5%
AUC(0-inf) ([3]; iv, 10 mg/kg): 11800 ± 1430 ng·h/mL
AUC(0-inf) ([3]; po, 150 mg/kg): 970 ± 230 ng·h/mL
Cmax ([3]; po, 150 mg/kg): 490 ± 290 ng/mL
Tmax ([3]; po, 150 mg/kg): 1 ± 0.35 h
SMILES: CC1=C2C(=O)O[C@@H](c3ccoc3)[C@]2(C)CCC1 [Frax, Fraxinellone]
cytotoxicity (in words) (Caco-2 cells): marked cell death
collagen in liver tissue (Masson, Sirius Red staining) [4, 6]: no obvious inhibition
levels of liver fibrosis markers AST, ALT and HYP [4, 6]: no significant decrease
effect on liver fibrosis ([4]; oral 20 mg/kg daily for 7 weeks): rather modest effect
intestinal permeability [5]: good intestinal permeability
